Patent US20250161399A1, “TARGETING SLC46A2-MEDIATED MUROPEPTIDE TRANSPORT TO TREAT PSORIASIS” (University of Massachusetts, priority 2021, published 2025)
“Also recorded” adds a separate entry of the source. One block for each molecule: values may come before it. Peptide text beside a SMILES is read from it. * marks the point of attachment. Cbz = O=C(OCc1ccccc1)*; CH2F = FC*

Experiments:
[1] = test system: mouse skin (NOD1/NOD2 response); test: neutrophil recruitment to pinnae after intradermal injection; assay type: in vivo; details: for neutrophil recruitment response in Slc46a2-deficient mice compared to WT: Tri-DAP 25 μM, C12-iE-DAP 20 μM
Experimental: […] After 3 h, both ears were individually harvested, and stored in ice cold PBS on ice until further processing for flow cytometry staining.
Pinnae were cut into small pieces and incubated for 30 min at 37° C. in a solution of 1 mg/ml collagenase (Sigma) in DMEM media containing 10% FBS. Ice-cold FACS buffer (2% FBS in PBS) was added to skin samples to stop the reaction. Then samples were placed on 70 μm cell strainers and ground using a cell strainer pestle to create a single cell suspension. Cells were spun at 180 g for 5 min at 4° C. and resuspended in FACS buffer.
(§1) 1×10^6 cells were stained with F4/80-PE/Cy7 (1:200), CD45-alexaflour700 (1:200) and Gr1-PE (1:200) for 30 min on ice in the dark. Samples were washed three times with FACS buffer and analyzed with a Cytek Aurora cytometer. Results were analyzed with FlowJo software (Tree Star, USA).

[2] = test system: primary mouse keratinocytes; test: keratinocyte cell permeabilization assay (Sytox dye uptake, live cell imaging); assay type: cell-based; details: WT keratinocytes, 30 μM iE-DAP, 24 h; MTX increasing concentration, zVAD-fmk 10 μM, DMF 50 μM
Experimental: (§2) Adult (6-8 weeks) mouse keratinocytes were isolated from male or female animals using protocols described previously (57). In brief, tail skin was incubated in 1 mg/ml Dispase II (Roche) overnight at 4° C. The epidermis was physically removed from the dermis with tweezers following Dispase II treatment, subsequently digested with TrypLE (Thermo) for 20 min at room temperature, and keratinocytes were detached by vigorously shaking in EpiLife culture medium and filtered with a 70 μm strainer (Fisher scientific). Isolated cells were seeded at a density of 10^5 cells/cm^2 cultured with EpiLife (Gibco) in 12-well plates precoated with coating matrix (Gibco) and used between 3 and 5 days after isolation.
For cell permeabilization assays, 1×10^5 keratinocytes/well were seeded in a 96-well plate (Denville Scientific Inc.). After reaching 80% confluency, 30 μM iE-DAP was added to culture media with 1 nM Sytox red dye (Thermo) and 0.2 nM hoechst stain (Thermo). Plates were then cultured in a Cytation5 (BioTek) live imaging device and each well was imaged every 30 min for 24 hours. For analysis, Gen5 software were used to count the total number of Hoechst-stained nuclei and the total number of permeabilized cells were quantified as the number of Sytox positive nuclei. The Percentage of Sytox^+ cells was then calculated and plotted.

[3] = molecular target: T1, Slc46a2 (Mus musculus, UniProt Q8CA03); test: click-muropeptide uptake into keratinocytes (CalFluor 488 Azide, confocal imaging and lysate fluorescence); assay type: cell-based; details: WT or Nod1−/− keratinocytes, 30 μM click-iE-DAP; MTX 250 μM or unlabeled iE-DAP 30 μM
T1 construct: primary mouse keratinocytes, which express Slc46a2 and Nod1; endogenous in cells; host or cells: primary mouse epidermal keratinocytes (WT or Nod1-/-; Slc46a2-/- cells served as the negative control)
T1 sequence (Q8CA03 1-479): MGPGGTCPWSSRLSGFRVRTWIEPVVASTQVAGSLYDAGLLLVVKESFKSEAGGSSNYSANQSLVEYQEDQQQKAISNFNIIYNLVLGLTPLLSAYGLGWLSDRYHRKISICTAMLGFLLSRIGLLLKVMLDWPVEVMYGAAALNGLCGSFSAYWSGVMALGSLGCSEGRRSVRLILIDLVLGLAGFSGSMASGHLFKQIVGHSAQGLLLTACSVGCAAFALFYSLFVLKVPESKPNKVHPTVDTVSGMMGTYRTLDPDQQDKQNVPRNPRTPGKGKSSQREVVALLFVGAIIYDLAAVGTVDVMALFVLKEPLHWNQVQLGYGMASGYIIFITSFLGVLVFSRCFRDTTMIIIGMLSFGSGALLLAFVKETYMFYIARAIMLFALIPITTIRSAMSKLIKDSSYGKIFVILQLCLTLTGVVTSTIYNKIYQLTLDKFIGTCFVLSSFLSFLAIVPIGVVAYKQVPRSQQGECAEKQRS
Experimental: For visualization, mouse keratinocytes were challenged with click-iE-DAP (30 μM) or click-MDP (20 μM) 37° C. for 30-60 min, cells washed 2× with 1×PBS to remove access of click-muropeptides and fixed with 4% paraformaldehyde in PBS at RT for 10 min. Cells were permeabilized with 1% Triton-X in PBS for 10 min at RT and blocked with 1% BSA in PBS. These permeabilized cells were then incubated in click-reaction conditions (250 μM CuSO4, 35 μM BTAA, 60 μM sodium ascorbate) with 2.5 μM CalFluor 488 Azide at RT for 30 mins. Cells were then washed and mounted on slides, with DAPI containing mounting media. Slides were imaged with a Leica SP8 confocal microscope.

[4] = test system: primary mouse keratinocytes; test: lipid nanoparticle (NP) mediated iE-DAP/dye delivery into keratinocytes; assay type: cell-based; details: keratinocytes pretreated with 250 μM MTX, iE-DAP delivered by dye-loaded NP
Experimental: Briefly, a matrix of DOPC/DSPC/DOPG/cholesterol/DSPE-mPEG at 33.5/33.5/20/10/3 mol % was prepared in chloroform and dry lipid/cholesterol films were allowed to form. Films were rehydrated with iE-DAP (Invivogen) prepared in PBS at 1.2 mg/mL and these samples were vortexed for 30 sec every 10 min for 1 hr at 56° C. to complete this process. Following rehydration, samples were ultrasonicated in alternating 20 sec pulse/10 sec off cycles for 5 min at an amplitude of 20% to form iEDAP-encapsulated lipid-based NPs. Samples were dialyzed for 1 hr following ultrasonication. Dynamic light scattering (DLS) and zeta potential measurements using a Malvern Zetasizer were used to characterize NP size and surface charge, respectively. […] Quant-IT assay (Thermo Fisher Scientific) measurements were used to measure average iE-DAP encapsulation at 998.1 μg/mL and an average encapsulation efficiency of 57.1%. To visualize iE-DAP-encapsulated NPs, 0.1 mol % of the fluorescent lipid tracer dye 3,3′-dioctadecyloxacarbocyanine perchlorate (DiO) were added to the lipid/cholesterol films. Mouse keratinocytes were challenged iE-DAP loaded NPs, or control empty NPs, at 37° C. at 10 μg/ml final concentration (˜30 μM iE-DAP), and then monitored for Sytox uptake assay for 24 h, as described above. […]

[5] = test system: psoriasis-like inflammation on mouse pinnae; test: IMQ model of psoriasis-like dermatitis (ear thickness, H&E histology); assay type: in vivo
Experimental: Pinnae were harvested 3 h after DAP-muropeptide administration or 7 d after topical application of IMQ and fixed in PBS containing 10% formalin. Paraffin-embedded sections were cut at […], stained with H&E, and imaged by light microscopy.
The induction of psoriasis-like inflammation on mouse pinnae was done as previously described (60). In brief, mice were treated daily for up to 6 d with 5 mg 5% IMQ cream topically applied on one pinna, while the other pinnae were treated with a similar amount of Vaseline, as vehicle control. Ear thickness was measured daily using a digital caliper. The change in ear thickness over time was reported as the difference related to the first day of topical application. For the bacterial assisted psoriasis model, 5 mg 5% IMQ cream was topically applied on one pinna, while the contralateral pinna was treated with a similar amount of Vaseline for 3 days, and then 10^7 CFU of C. accolens, in 50% glycerol, was topically applied daily to both pinnae. Ear thickness was measured daily using a digital caliper. C. accolens, originally from ATCC, was provided by J. Kang and grown as described (61).

[6] = test system: primary mouse keratinocytes; test: cytokine ELISAs from primary keratinocyte culture media; assay type: cell-based
Experimental: as §2
For cytokine ELISAs, primary keratinocytes were either mock-treated or treated with 8 μM TCT or 30 μM iE-DAP for 24 h Culture medium was harvested and centrifuged at 500 g for 15 mins and analyzed using ELISA kits detecting CXCL1 (KC), IL-6, TNF-α, IL-1α and IL-1β (R&D systems) following the manufacturer's protocols. In brief, 96-well ELISA plates were coated with capture antibody overnight at room temperature. The next day, the plate was washed three times with wash buffer and incubated with harvested media (100 μl) for 2 h followed by three washes and then probed with biotin-labelled detection antibody for 2 h. After three washes with wash buffer, plates were incubated with HRP-streptavidin for 20 min at room temperature (RT), developed with TMB (3,3′,5,5″-tetramethylbenzidine) substrate for 20 min at RT, and then stopped with IN sulfuric acid. Plate was analyzed at 450 nm with wavelength correction at 540 nm.

[7] = test system: mouse peritoneum (NOD1/NOD2 response); test: neutrophil recruitment to the peritoneum after intraperitoneal injection; assay type: in vivo; details: 3 h, iE-DAP 30 μM, MDP 10 μM
Experimental: For peritoneal cell extraction, animals were euthanized and cells from peritoneal cavity were isolated by peritoneal lavage (58). Harvested cell suspensions were centrifuged at 300 g for 5 min at 4° C. and resuspended in FACS buffer.
as §1

[8] = test system: HSE dermal fibroblasts (CXCL8); test: CXCL8 induction in Human Skin Equivalents (HSE) skin organoids; assay type: cell-based; details: concomitant treatment with iE-DAP
[9] = test system: primary dermal fibroblasts; test: CXCL1 (KC) ELISA from primary dermal fibroblasts; assay type: cell-based, mouse; details: iE-DAP 30 μM or IL-1α 10 ng/ml, 24 hrs
Experimental: Mouse dermal fibroblasts were isolated as described herein. In brief, mouse pinnae were incubated on a table shaker (200 rpm) in a collagenase D-pronase solution [2.5 mg/ml collagenase-D (Sigma), 20 mg/ml pronase (Sigma) diluted in 1M Tris, pH 8.0 and containing 1 μM EDTA (Sigma)] for 90 min at 37° C. Fibroblasts were then isolated by pressing digested skin through a 70 μm cell strainer, and cells were collected and cultured in RPMI 1640 medium with 10% FBS, 50 μM 2-mercaptoethanol, 100 μM asparagine, 2 mM glutamine, 1% penicillin-streptomycin for 2-4 passages before stimulating with immune elicitors, and/or harvesting media or cells.
For cytokine ELISAs from dermal fibroblast, cells were challenged with IL-1α (10 ng/ml) or 30 μM iE-DAP for 24 h, and media was collected and processed for ELISA as described above.

[10] = intradermal, 3 h, TCT 8 μM, iE-DAP 30 μM, MDP 10 μM

Molecule: tracheal cytotoxin [TCT]
- neutrophil / leukocyte recruitment to the skin in WT mice ([1]; intradermal 10 μl, TCT 8 μM, LPS 10 μg/ml, iE-DAP 30 μM, 1 to 24 h): rapid and robust; also recorded: robust and rapid
- time of peak leukocyte recruitment ([1]; intradermal TCT, monitored between 1 and 24 h): 3 h
- neutrophil recruitment response in Slc46a2-deficient mice compared to WT [1, 10]: significantly reduced

Molecule: COC(=O)C[C@H](NC(=O)[C@H](C)NC(=O)[C@@H](NC(=O)OCc1ccccc1)C(C)C)C(=O)CF [zVAD-FMK] (Cbz-Val-Ala-Asp(OMe)-CH2F)
- inhibition of DAP-muropeptide triggered keratinocyte permeabilization (Sytox uptake) [2]: prevented

Molecule: C[C@H](N)C(=O)N[C@H](CCC(=O)NC(CCCC(N)C(=O)O)C(=O)O)C(=O)O (stereo partly shown) [Tri-DAP]
- neutrophil recruitment response in Slc46a2-deficient mice compared to WT [1, 10]: significantly reduced

- effect on cytosolic accumulation / cellular uptake of click-iE-DAP [3]: blocked; also recorded: interfered
Molecule: CN(Cc1cnc2nc(N)nc(N)c2n1)c1ccc(C(=O)N[C@@H](CCC(=O)O)C(=O)O)cc1 [MTX, methotrexate]
- effect on NP-mediated iE-DAP / dye delivery [4]: failed to interfere; also recorded: did not affect
- residual inflammation in Slc46a2−/− and Nod1−/− skin ([5]; Slc46a2−/− and Nod1−/− mice, IMQ daily with topical 50 μl of 250 μM MTX): no observable effect; also recorded: minimalistic effect
- psoriasis like inflammation in WT skin ([5]; WT mice, IMQ daily with topical 50 μl of 250 μM MTX): reduced; also recorded: less inflamed
- inhibition of DAP-muropeptide triggered keratinocyte permeabilization (Sytox uptake) [2]: inhibited
- IL-1α release in iE-DAP treated WT keratinocytes ([6]; 250 μM MTX along with 30 μM iE DAP, 24 hours): prevented
- inhibition of DAP-muropeptide triggered IL-1α release ([6]; keratinocytes, iE-DAP, increasing concentrations of MTX, dose dependent): inhibited

Molecule: CC(=O)N[C@H]1C(O)O[C@H](CO)[C@@H](O)[C@@H]1O[C@H](C)C(=O)N[C@@H](C)C(=O)N[C@H](CCC(=O)O)C(N)=O (mixture of isomers) [MDP, muramyl dipeptide]
- neutrophil recruitment response in Slc46a3−/− mice ([1]; intradermal, 3 h, MDP 10 μM): significantly defective
- neutrophil recruitment response in Slc46a2-deficient mice compared to WT [1, 10]: responded normally
- neutrophil recruitment response in Slc46a2−/− mice [7]: responded like wild-type
- neutrophil recruitment response in Slc46a3−/− mice [7]: failing to respond

Molecule: CC(C)Cn1cnc2c(N)nc3ccccc3c21 [IMQ, imiquimod]
- inflammation in Slc46a2- and Nod1-deficient mice ([5]; 7-day course of topical IMQ): markedly resistant
- inflammation in WT mice (ear thickness, H&E histology) ([5]; 7-day course of topical IMQ, WT mice): expected psoriatic-like inflammation

Molecule: CCCCCCCCCCCC(=O)N[C@H](CCC(=O)NC(CCCC(N)C(=O)O)C(=O)O)C(=O)O (stereo partly shown) [C12-iE-DAP]
- neutrophil recruitment response in Slc46a2-deficient mice compared to WT [1, 10]: not significantly changed

Molecule: IL-1Ra: recombinant IL-1R antagonist
- effect on iE-DAP induced CXCL8 in HSE dermis [8]: prevented
- effect on iE-DAP induced CXCL8 in HSE dermis ([8]; listed as IL-IRA): blocked

B1: IL-1α: cytokine used to challenge dermal fibroblasts (10 ng/ml) (protein, UniProt P01583 113-271, looked up)
Interleukin-1 alpha: SAPFSFLSNVKYNFMRIIKYEFILNDALNQSIIRANDQYLTAAALHNLDEAVKFDMGAYKSSKDDAKITVILRISKTQLYVTAQDEDQPVLLKEMPEIPKTITGSETNLLFFWETHGTKNYFTSVAHPNLFIATKQDYWVCLAGGPPSITDFQILENQA
- CXCL1 (KC) response of primary dermal fibroblasts [9]: induced
